Results as given in PMC9898036, “VIP152 is a selective CDK9 inhibitor with pre-clinical in vitro and in vivo efficacy in chronic lymphocytic leukemia” (Leukemia, 2022).

What was measured:
Format in all cases: binding
[1] = target: MEK5 (Homo sapiens, UniProt Q13163); test: KINOMEscan: MEK5; settings: 1000 nM, read-out: Percent Control
[2] = target: FES (Homo sapiens, UniProt P07332); test: KINOMEscan: FES; settings: 1000 nM, read-out: Percent Control
[3] = target: Adrenergic β2 (Homo sapiens, UniProt P07550); test: Eurofins Diversity Panel; settings: hum, Conc. 10 μM
[4] = target: KIT(V559D) (Homo sapiens, UniProt P10721, V559D); test: KINOMEscan: KIT(V559D); settings: 1000 nM, read-out: Percent Control
[5] = target: Estrogen Erα (Homo sapiens, UniProt P03372); test: Eurofins Diversity Panel; settings: hum, Conc. 10 μM
[6] = target: human kinome (Homo sapiens, UniProt Q16512); test: DiscoverX KINOMEscan kinase profiling (468 assays); settings: read-out: Percent Control
Procedure, shortened: (§1)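 VIP152 was run in DMSO, alongside a DMSO control. Readout was qPCR of DNA-tagged kinase still bound to bead-immobilized biotinylated kinase ligands after compound competition.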

[7] = target: human kinome (Homo sapiens, UniProt Q96NX5); test: DiscoverX KINOMEscan kinase profiling (468 assays); settings: CAMK1G; 100 nM; read-out: Percent Control
Procedure, shortened: as §1

[8] = target: human kinome (Homo sapiens, UniProt O43353); test: DiscoverX KINOMEscan kinase profiling (468 assays); settings: kinase RIPK2 (Entrez RIPK2); compound concentration 1000 nM; read-out: Percent Control
Procedure, shortened: as §1

[9] = target: human kinome (Homo sapiens, UniProt Q86YV6); test: DiscoverX KINOMEscan kinase profiling (468 assays); settings: read-out: Percent Control
Procedure, shortened: as §1

[10] = target: human kinome (Homo sapiens, UniProt Q15569); test: DiscoverX KINOMEscan kinase profiling (468 assays); settings: kinase TESK1 (Entrez TESK1); compound concentration 1000 nM; read-out: Percent Control
Procedure, shortened: as §1

[11] = target: human kinome (Homo sapiens, UniProt P04049); test: DiscoverX KINOMEscan kinase profiling (468 assays); settings: read-out: Percent Control
Procedure, shortened: as §1

[12] = target: human kinome (Homo sapiens, UniProt P45983); test: DiscoverX KINOMEscan kinase profiling (468 assays); settings: JNK1 (Entrez MAPK8); 100 nM; read-out: Percent Control
Procedure, shortened: as §1

[13] = target: human kinome (Homo sapiens, UniProt P42680); test: DiscoverX KINOMEscan kinase profiling (468 assays); settings: kinase TEC (Entrez TEC); compound concentration 1000 nM; read-out: Percent Control
Procedure, shortened: as §1

[14] = target: human kinome (Homo sapiens, UniProt O43293); test: DiscoverX KINOMEscan kinase profiling (468 assays); settings: DAPK3; 100 nM; read-out: Percent Control
Procedure, shortened: as §1

[15] = target: human kinome (Homo sapiens, UniProt P27448); test: DiscoverX KINOMEscan kinase profiling (468 assays); settings: MARK3; 100 nM; read-out: Percent Control
Procedure, shortened: as §1

[16] = target: human kinome (Homo sapiens, UniProt Q8IYT8); test: DiscoverX KINOMEscan kinase profiling (468 assays); settings: kinase ULK2 (Entrez ULK2); compound concentration 1000 nM; read-out: Percent Control
Procedure, shortened: as §1

[17] = target: human kinome (Homo sapiens, UniProt P21709); test: DiscoverX KINOMEscan kinase profiling (468 assays); settings: EPHA1; 100 nM; read-out: Percent Control
Procedure, shortened: as §1

[18] = target: human kinome (Homo sapiens, UniProt O96017); test: DiscoverX KINOMEscan kinase profiling (468 assays); settings: CHEK2; 100 nM; read-out: Percent Control
Procedure, shortened: as §1

[19] = target: human kinome (Homo sapiens, UniProt Q6PHR2); test: DiscoverX KINOMEscan kinase profiling (468 assays); settings: kinase ULK3 (Entrez ULK3); compound concentration 1000 nM; read-out: Percent Control
Procedure, shortened: as §1

[20] = target: human kinome (Homo sapiens, UniProt Q9Y4K4); test: DiscoverX KINOMEscan kinase profiling (468 assays); settings: MAP4K5; 100 nM; read-out: Percent Control
Procedure, shortened: as §1

[21] = target: human kinome (Homo sapiens, UniProt O15264); test: DiscoverX KINOMEscan kinase profiling (468 assays); settings: read-out: Percent Control
Procedure, shortened: as §1

[22] = target: human kinome (Homo sapiens, UniProt Q06418); test: DiscoverX KINOMEscan kinase profiling (468 assays); settings: kinase TYRO3 (Entrez TYRO3); compound concentration 1000 nM; read-out: Percent Control
Procedure, shortened: as §1

[23] = target: human kinome (Homo sapiens, UniProt Q9BX84); test: DiscoverX KINOMEscan kinase profiling (468 assays); settings: kinase TRPM6 (Entrez TRPM6); compound concentration 1000 nM; read-out: Percent Control
Procedure, shortened: as §1

[24] = target: human kinome (Homo sapiens, UniProt P32298); test: DiscoverX KINOMEscan kinase profiling (468 assays); settings: GRK4; 100 nM; read-out: Percent Control
Procedure, shortened: as §1

[25] = target: human kinome (Homo sapiens, UniProt Q9Y2U5); test: DiscoverX KINOMEscan kinase profiling (468 assays); settings: MAP3K2; 100 nM; read-out: Percent Control
Procedure, shortened: as §1

[26] = target: human kinome (Homo sapiens, UniProt P41240); test: DiscoverX KINOMEscan kinase profiling (468 assays); settings: CSK; 100 nM; read-out: Percent Control
Procedure, shortened: as §1

[27] = target: human kinome (Homo sapiens, UniProt P17948); test: DiscoverX KINOMEscan kinase profiling (468 assays); settings: FLT1; 100 nM; read-out: Percent Control
Procedure, shortened: as §1

[28] = target: TNNI3K (Homo sapiens, UniProt Q59H18); test: KINOMEscan: TNNI3K; settings: 100 nM, read-out: Percent Control
[29] = target: FGFR3(G697C) (Homo sapiens, UniProt P22607, G697C); test: KINOMEscan: FGFR3(G697C); settings: 1000 nM, read-out: Percent Control
[30] = target: LKB1 (Homo sapiens, UniProt Q15831); test: KINOMEscan: LKB1; settings: 1000 nM, read-out: Percent Control
[31] = target: ULK3 (Homo sapiens, UniProt Q6PHR2); test: KINOMEscan: ULK3; settings: 100 nM, read-out: Percent Control
[32] = target: BMPR1B (Homo sapiens, UniProt O00238); test: KINOMEscan: BMPR1B; settings: 1000 nM, read-out: Percent Control

Chain of human kinome (Homo sapiens, UniProt P04049) (P04049 whole entry): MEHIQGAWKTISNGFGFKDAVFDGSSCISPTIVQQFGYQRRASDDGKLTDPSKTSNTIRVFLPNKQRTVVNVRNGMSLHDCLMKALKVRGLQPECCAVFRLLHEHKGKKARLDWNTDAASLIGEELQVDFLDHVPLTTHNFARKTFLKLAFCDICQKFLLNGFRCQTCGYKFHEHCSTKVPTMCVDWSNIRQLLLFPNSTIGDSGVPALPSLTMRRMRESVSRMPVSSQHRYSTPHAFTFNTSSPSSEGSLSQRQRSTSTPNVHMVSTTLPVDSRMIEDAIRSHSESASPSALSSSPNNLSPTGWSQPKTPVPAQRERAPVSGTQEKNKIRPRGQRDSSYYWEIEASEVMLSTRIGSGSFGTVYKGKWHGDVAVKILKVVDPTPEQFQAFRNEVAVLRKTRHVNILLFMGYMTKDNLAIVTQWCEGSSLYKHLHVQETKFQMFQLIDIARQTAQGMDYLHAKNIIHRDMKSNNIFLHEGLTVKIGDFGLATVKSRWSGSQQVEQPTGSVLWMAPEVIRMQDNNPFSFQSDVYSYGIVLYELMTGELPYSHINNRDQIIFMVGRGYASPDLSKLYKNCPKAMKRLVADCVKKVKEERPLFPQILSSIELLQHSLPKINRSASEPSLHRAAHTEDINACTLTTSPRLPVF
Chain of human kinome (Homo sapiens, UniProt Q86YV6) (Q86YV6 whole entry): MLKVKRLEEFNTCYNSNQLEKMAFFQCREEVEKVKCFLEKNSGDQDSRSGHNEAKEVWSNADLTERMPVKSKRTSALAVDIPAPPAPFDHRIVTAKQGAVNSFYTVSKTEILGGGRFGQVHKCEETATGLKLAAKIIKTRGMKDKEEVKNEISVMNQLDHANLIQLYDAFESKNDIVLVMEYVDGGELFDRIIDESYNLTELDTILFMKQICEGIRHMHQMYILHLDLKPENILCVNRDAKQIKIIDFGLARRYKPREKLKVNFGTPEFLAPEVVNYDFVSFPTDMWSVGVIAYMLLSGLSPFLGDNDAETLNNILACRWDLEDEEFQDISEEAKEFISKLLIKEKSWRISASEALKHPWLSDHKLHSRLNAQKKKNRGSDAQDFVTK
Chain of human kinome (Homo sapiens, UniProt O15264) (O15264 whole entry): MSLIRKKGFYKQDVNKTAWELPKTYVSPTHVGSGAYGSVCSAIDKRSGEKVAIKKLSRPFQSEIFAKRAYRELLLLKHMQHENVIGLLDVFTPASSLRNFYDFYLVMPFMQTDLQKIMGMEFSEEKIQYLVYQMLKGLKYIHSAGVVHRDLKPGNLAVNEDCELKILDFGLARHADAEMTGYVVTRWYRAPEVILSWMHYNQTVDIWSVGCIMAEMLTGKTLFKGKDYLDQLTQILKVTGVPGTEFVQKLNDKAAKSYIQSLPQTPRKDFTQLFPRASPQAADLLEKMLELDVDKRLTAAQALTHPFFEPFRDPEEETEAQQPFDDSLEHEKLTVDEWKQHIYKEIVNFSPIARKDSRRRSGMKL
Chain of human kinome (Homo sapiens, UniProt Q16512) (Q16512 whole entry): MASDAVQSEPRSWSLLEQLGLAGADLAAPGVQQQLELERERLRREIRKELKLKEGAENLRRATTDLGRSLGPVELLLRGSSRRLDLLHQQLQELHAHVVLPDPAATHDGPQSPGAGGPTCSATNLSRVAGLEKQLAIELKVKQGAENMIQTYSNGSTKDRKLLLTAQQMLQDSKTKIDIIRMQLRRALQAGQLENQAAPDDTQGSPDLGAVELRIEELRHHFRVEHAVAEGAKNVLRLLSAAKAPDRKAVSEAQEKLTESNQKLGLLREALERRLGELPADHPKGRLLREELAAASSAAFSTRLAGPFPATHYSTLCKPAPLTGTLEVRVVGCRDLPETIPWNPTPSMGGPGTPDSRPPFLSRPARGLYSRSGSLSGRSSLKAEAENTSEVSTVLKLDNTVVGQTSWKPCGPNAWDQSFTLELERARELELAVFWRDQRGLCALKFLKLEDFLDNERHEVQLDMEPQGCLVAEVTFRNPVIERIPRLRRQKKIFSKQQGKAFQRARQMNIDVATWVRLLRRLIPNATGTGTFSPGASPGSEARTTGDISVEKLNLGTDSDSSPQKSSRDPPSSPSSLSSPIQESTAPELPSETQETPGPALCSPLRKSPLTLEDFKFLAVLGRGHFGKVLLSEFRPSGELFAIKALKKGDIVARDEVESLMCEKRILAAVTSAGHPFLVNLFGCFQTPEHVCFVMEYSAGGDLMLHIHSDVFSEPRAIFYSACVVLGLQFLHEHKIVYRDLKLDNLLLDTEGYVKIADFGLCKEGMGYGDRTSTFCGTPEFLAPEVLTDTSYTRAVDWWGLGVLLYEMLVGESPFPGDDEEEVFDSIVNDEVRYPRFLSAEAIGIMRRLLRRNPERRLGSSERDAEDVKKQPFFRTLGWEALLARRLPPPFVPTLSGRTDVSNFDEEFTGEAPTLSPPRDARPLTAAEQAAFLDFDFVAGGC
Chain of human kinome (Homo sapiens, UniProt Q8IYT8) (Q8IYT8 whole entry): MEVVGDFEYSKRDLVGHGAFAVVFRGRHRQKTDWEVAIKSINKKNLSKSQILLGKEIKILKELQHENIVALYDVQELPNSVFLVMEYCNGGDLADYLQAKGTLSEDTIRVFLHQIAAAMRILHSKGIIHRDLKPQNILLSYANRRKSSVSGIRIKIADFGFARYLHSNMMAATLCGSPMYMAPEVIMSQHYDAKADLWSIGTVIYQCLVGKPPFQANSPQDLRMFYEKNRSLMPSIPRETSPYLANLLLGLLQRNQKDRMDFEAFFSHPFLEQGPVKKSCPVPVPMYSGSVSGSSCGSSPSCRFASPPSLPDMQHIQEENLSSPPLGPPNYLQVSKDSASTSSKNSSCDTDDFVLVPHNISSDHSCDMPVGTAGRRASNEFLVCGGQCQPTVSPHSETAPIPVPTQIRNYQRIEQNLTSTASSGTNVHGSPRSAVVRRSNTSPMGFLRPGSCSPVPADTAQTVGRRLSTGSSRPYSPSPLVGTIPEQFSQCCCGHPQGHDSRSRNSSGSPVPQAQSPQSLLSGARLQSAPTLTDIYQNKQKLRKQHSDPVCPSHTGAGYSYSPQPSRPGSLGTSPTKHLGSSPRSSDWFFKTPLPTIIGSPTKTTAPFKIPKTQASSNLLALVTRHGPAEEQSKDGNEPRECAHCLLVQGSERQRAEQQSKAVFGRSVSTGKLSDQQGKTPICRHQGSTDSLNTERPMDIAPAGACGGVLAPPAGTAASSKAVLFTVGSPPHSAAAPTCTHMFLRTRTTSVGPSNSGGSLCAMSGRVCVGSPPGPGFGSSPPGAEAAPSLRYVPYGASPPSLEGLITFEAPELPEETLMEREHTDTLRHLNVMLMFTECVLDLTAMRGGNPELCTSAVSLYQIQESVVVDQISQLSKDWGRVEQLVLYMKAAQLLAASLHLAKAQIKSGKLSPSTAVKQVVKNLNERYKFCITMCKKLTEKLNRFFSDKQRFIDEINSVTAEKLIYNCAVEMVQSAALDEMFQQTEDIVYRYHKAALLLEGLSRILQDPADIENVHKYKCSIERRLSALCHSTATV
Chain of FES (P07332 whole entry): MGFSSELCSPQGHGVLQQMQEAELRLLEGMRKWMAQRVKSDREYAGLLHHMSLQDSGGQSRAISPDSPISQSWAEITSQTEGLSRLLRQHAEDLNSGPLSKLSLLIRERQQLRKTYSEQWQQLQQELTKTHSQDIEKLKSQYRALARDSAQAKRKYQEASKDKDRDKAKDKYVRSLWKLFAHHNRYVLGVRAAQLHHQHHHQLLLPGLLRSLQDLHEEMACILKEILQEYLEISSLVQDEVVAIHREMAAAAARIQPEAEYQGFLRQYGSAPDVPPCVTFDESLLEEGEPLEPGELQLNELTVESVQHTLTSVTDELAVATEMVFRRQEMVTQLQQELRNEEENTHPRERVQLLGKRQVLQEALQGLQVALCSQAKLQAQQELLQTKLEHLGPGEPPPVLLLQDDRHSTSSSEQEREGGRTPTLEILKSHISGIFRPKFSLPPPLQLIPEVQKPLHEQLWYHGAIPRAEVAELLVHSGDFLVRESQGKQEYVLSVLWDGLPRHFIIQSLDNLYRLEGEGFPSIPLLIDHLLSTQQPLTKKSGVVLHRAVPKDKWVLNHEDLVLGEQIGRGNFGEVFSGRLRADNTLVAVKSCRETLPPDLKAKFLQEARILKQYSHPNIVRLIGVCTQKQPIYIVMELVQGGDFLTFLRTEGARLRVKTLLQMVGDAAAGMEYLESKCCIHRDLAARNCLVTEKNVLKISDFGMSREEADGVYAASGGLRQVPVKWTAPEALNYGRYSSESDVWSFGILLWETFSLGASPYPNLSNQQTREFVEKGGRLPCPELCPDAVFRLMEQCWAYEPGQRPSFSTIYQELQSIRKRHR
Chain of human kinome (Homo sapiens, UniProt O43293) (O43293 whole entry): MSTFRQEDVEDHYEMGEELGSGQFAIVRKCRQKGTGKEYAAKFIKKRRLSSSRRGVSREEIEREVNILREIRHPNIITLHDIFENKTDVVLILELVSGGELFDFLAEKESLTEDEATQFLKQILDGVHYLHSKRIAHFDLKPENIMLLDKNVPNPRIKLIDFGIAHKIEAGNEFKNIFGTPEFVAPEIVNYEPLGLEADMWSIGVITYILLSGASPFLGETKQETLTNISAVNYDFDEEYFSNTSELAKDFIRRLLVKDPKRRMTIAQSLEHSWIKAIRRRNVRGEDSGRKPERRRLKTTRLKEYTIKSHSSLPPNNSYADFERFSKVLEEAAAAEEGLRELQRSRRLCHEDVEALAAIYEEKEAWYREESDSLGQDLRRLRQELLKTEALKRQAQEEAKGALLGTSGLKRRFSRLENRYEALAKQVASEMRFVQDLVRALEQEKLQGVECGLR

COc1cc(F)ccc1-c1cc(Nc2cc(CS(C)(=N)=O)ccn2)ncc1F (stereo not drawn) [VIP152]
remaining binding at 1 µM [1]: 52% | remaining binding at 1 µM [2]: 87% | inhibition at 10 µM [3]: 3% | remaining binding at 1 µM [4]: 82% | inhibition at 10 µM [5]: 6% | remaining binding at 0.1 µM ([6]; PKN1, 100 nM): 100% | remaining binding at 1 µM ([6]; kinase PKN1 (Entrez PKN1), compound concentration 1000 nM): 88% | remaining binding at 0.1 µM [7]: 100% | remaining binding at 1 µM [8]: 49% | remaining binding at 0.1 µM ([9]; MYLK4, 100 nM): 100% | remaining binding at 1 µM ([9]; kinase MYLK4 (Entrez MYLK4), compound concentration 1000 nM): 89% | remaining binding at 1 µM [10]: 92% | remaining binding at 0.1 µM ([11]; RAF1, 100 nM): 100% | remaining binding at 1 µM ([11]; kinase RAF1 (Entrez RAF1), compound concentration 1000 nM): 96% | remaining binding at 0.1 µM [12]: 98% | remaining binding at 1 µM [13]: 100% | remaining binding at 0.1 µM [14]: 100% | remaining binding at 0.1 µM [15]: 99% | remaining binding at 1 µM [16]: 97% | remaining binding at 0.1 µM [17]: 100% | remaining binding at 0.1 µM [18]: 100% | remaining binding at 1 µM [19]: 85% | remaining binding at 0.1 µM [20]: 94% | remaining binding at 1 µM ([21]; kinase p38-delta (Entrez MAPK13), compound concentration 1000 nM): 98% | remaining binding at 0.1 µM ([21]; p38-delta (Entrez MAPK13), 100 nM): 100% | remaining binding at 1 µM [22]: 56% | remaining binding at 1 µM [23]: 96% | remaining binding at 0.1 µM [24]: 88% | remaining binding at 0.1 µM [25]: 100% | remaining binding at 0.1 µM [26]: 100% | remaining binding at 0.1 µM [27]: 100% | remaining binding at 0.1 µM [28]: 100% | remaining binding at 1 µM [29]: 63% | remaining binding at 1 µM [30]: 77% | remaining binding at 0.1 µM [31]: 96% | remaining binding at 1 µM [32]: 46%
